These results are taken from article PMC6764291 (Frontiers in Oncology, 2019).

Like-named read-outs stand apart in the source and are kept apart here.

For test [1], the system named is UT-SCC-45. Description: XTT cell viability, UT-SCC-45. In kind it is cell-based. The conditions noted are these: n ≥ 4. On the procedure: (§1) The human squamous cell carcinoma cell lines UM-SCC-74A and UM-SCC-74B were kindly provided by Professor TE Carey (University of Michigan, USA) and cultured in Dulbecco's Modified Eagle Medium (DMEM) with 10% fetal bovine serum, 1% L-glutamine, 1% antibiotics (100 IU penicillin and 100 μg/ml streptomycin) as well as 1% non-essential amino acids (all from Biochrom Kg, Berlin, Germany). UT-SCC-45 (kindly provided by Dr. R. Grenman, Turku University Central Hospital, Finland) was cultured in DMEM with the abovementioned additives. HCT116 and A431 were purchased from American Type Culture Collection (Manassas, VA, USA). […]
(§2) Five-hundred to ten thousands cells were seeded in flat-bottomed 96-well plates and incubated for 48 h prior to irradiation with 2Gy. […] Plates were incubated for up to 6 h at 37° and absorbance was measured by using a BioMark Microplate Reader (Bio-Rad Laboratories AB, Solna, Sweden).
(§3) GraphPad Prism version 6.07 (GraphPad Software, San Diego, USA) was used for data processing and analysis. p-values were determined using unpaired student's t-test for comparison between two groups or one-way ANOVA followed by Tukey's multiple comparisons test, with p < 0.05 (^*), p < 0.01 (^**), p < 0.001 (^***), and p < 0.0001 (^****). […]
(In general: Tetrazolium assays rely on reduction of a dye to a coloured formazan, in cell work by metabolically active cells.)

Test [2] concerns UM-SCC-74B. In words: XTT cell viability, UM-SCC-74B. The test is classed as cell-based, human. On the procedure: (§4) The human squamous cell carcinoma cell lines UM-SCC-74A and UM-SCC-74B were kindly provided by Professor TE Carey (University of Michigan, USA) and cultured in Dulbecco's Modified Eagle Medium (DMEM) with 10% fetal bovine serum, 1% L-glutamine, 1% antibiotics (100 IU penicillin and 100 μg/ml streptomycin) as well as 1% non-essential amino acids (all from Biochrom Kg, Berlin, Germany). UT-SCC-45 (kindly provided by Dr. R. Grenman, Turku University Central Hospital, Finland) was cultured in DMEM with the abovementioned additives. HCT116 and A431 were purchased from American Type Culture Collection (Manassas, VA, USA). HCT116 was cultured in McCoy's modified Eagle medium with 10% fetal bovine serum, 1% L-glutamine and 1% antibiotics (100 IU penicillin and 100 μg/ml streptomycin) and A431 was cultured in Ham's F10 with the same additives. H314 was purchased from the European Collection of Authenticated Cell Cultures (Salisbury, UK) in DMEM/Ham's F12 (1:1) with the abovementioned additives. Cells were incubated at 37°C with 5% CO2, and cultivated for no longer than 2 months at a time.
(§5) Cells were irradiated using ^137Cs gamma-ray photons at a dose-rate of ~1 Gy/min (Best Theratronics Gammacell® 40Exactor, Springfield, USA).
(§6) Five-hundred to ten thousands cells were seeded in flat-bottomed 96-well plates and incubated for 48 h prior to irradiation with 2Gy. […] Cells were incubated at 37° for 4–5 days until 80–90% confluence had been obtained. A mix of XTT Activation Reagent and XTT Reagent was added according to the American Type Culture Collection 30–1011 K protocol (Manassas, VA, USA). Plates were incubated for up to 6 h at 37° and absorbance was measured by using a BioMark Microplate Reader (Bio-Rad Laboratories AB, Solna, Sweden).
(§7) GraphPad Prism version 6.07 (GraphPad Software, San Diego, USA) was used for data processing and analysis. p-values were determined using unpaired student's t-test for comparison between two groups or one-way ANOVA followed by Tukey's multiple comparisons test, with p < 0.05 (^*), p < 0.01 (^**), p < 0.001 (^***), and p < 0.0001 (^****). For XTT assays cell viability was normalized for irradiated and unirradiated samples separately. […] CDI ≤ 0.7 equaled significant synergistic effect, CDI ≤ 1 equaled additive effect and CDI > 1 equaled antagonistic effect ([29]).

Test [3] concerns cleaved caspase-3. Description: Western Blot cleaved caspase-3 expression, HCT116. In kind it is cell-based. On the procedure:
as §5
Whole-cell lysates were prepared according to standard protocols. Protein concentrations were measured using a DeNovix DS-11 spectrophotometer (DeNovix Inc., Wilmington, DE, USA). Samples were separated on 4–12% Bis-Tris SDS gels and transferred to a nitrocellulose membrane (ThermoFisher Scientific, Uppsala, Sweden) by wet-transfer blotting. The membrane was blocked for 1 h in PBS with 5% BSA before incubation with primary antibodies targeting p53, caspase-3, NaK-ATPase and GLB1 (DO-1 (ab1101), ab13847, ab76020 and ab128993, AbCam, Cambridge, UK) and β-actin (A5441, Sigma Aldrich Sweden, Stockholm, Sweden) at 4°C overnight. After washing with PBS with 1% Tween-20, the membrane was incubated with respective and species-specific Horse Radish Peroxidase-labeled secondary antibody (ThermoFisher Scientific, Waltham, MA, USA) and stained with electro-chemiluminescent solution (Immobilon, Millipore, Bedford, USA).

The subject of test [4] is HCT116. In words: XTT cell viability, HCT116. The test is classed as cell-based. On the procedure: as §4, §5, §6, §7
For test [5], the system named is A431. Description: XTT cell viability, A431. In kind it is cell-based. The conditions noted are these: n ≥ 4. On the procedure: as §1, §2, §3
[6] abbreviates: 0–20 μM PM2, 0 Gy, wild-type p53, HPV negative, n = 6.
[7] abbreviates: 20 μM PM2, 0 Gy, compared to untreated controls.

The term IC50 denotes the concentration that inhibits the measured activity by half.

For `CC(=O)N[C@H](C(=O)N[C@@H](CO)C(=O)N[C@@H](Cc1ccccc1)C(=O)N[C@]1(C)CCCCCCC=CCCC[C@@](C)(C(N)=O)NC(=O)[C@H](CC(C)C)NC(=O)[C@H](CC(C)C)NC(=O)[C@H](C)NC(=O)[C@H](Cc2c[nH]c3ccccc23)NC(=O)[C@H](Cc2ccc(O)cc2)NC(=O)[C@H](CCC(=O)O)NC1=O)[C@@H](C)O` [PM2], the PM2 effect result was “unresponsive and No response and No” in test [1] (0–20 μM PM2, 0 Gy, wild-type p53 (exon 4–8), HPV positive); “decreased significantly the viability and Yes” in test [2] (setting [6]); “decreased significantly the viability and Yes” in test [4] (setting [6]); “did not affect and unaffected and No” in test [5] (0–20 μM PM2, 0 Gy, single base p53 mutation, HPV negative). Also, the “Significant effect of combination” value was “unresponsive and No response and No” in test [1] (PM2 with 2 Gy EBRT); “most pronounced sensitivity and Yes” in test [2] (PM2 with 2 Gy EBRT, n = 6); “Yes” in test [4] (PM2 with 2 Gy EBRT, n = 6); “significantly decreased the viability and significant decrease in viability and Yes” in test [5] (PM2 with 2 Gy EBRT). Moreover, the average viability reduction is 90% in test [2] (setting [7]) and 75% in test [4] (setting [7]). In addition, the IC50 in test [2] (PM2 alone (0 Gy), 4–5 days, n = 6) is 17 µM; in test [4] (PM2 added 3 h after 2 Gy EBRT, normalized to 2 Gy, 0 μM PM2, n = 6, read-out: IC50 of the combination treatment), 12 µM; in test [4] (PM2 alone (0 Gy), 4–5 days, n = 6, read-out: IC50 (cell viability)), 14 µM. The “lowest PM2 dose with significant decrease of viability” value in test [2] (PM2 alone, compared with ~10 μM for HCT116 and UM-SCC-74A) is “slightly higher dose”; in test [4] (PM2 alone), ~ 10 μM. Moreover, the “lowest PM2 dose with significant drop in viability of combination versus PM2-monotherapy” value in test [2] (PM2 with 2 Gy EBRT) was 10 µM. Moreover, in test [3] (20 μM PM2, 96 h (representative blots), normalized to controls, n ≥ 3), the “increase in cleaved caspase-3 levels” value is “three-fold”. Further, the “cleaved caspase-3 expression” value in test [3] (20 μM PM2-treated samples, n ≥ 3) is listed as “increase in expression”. For the same molecule, the “cleaved caspase-3 expression, combination” value in test [3] (2 Gy + 20 μM PM2, n ≥ 3) is recorded as “predominant”.
